Measurements reported in patent US20060269529A1, “Modified t lymphocytes and uses therefor” (priority 2002, published 2006).

Experiments:
[1] = test system: T241 fibrosarcomas; experiment: Adoptive transfer, T241 tumors in C57BL/6 mice; type: in vivo; conditions: combination study, TNP-470 30 mg/kg s.c. every other day, daily IL-2, FIG. 5C
Procedure: (§1) On day 0, tumor cells were implanted into the subcutaneous space on the right flank of recipient mice. On the days of treatment, CTLs (4 to 7 post-transduction) were harvested, washed, resuspended in cold PBS, and injected in a volume of 300 μl into the retro-orbital venous plexus. […] TNP-470 (TAP Holdings Inc., Deerfield, Ill.) (30 mg/kg) was injected subcutaneously (into a site remote from the tumor) every other day in 0.3 ml PBS starting with the first day of CTL therapy. Starting volumes of tumors ranged from 40 to 80 mm^3. All mice were sacrificed when control mice reached a mean tumor volume of 2,000 mm^3 or had extensive tumor ulceration.

[2] = test system: CT26 murine colon adenocarcinomas; experiment: Adoptive transfer, subcutaneous CT26 tumors in BALB/c mice; type: in vivo; conditions: combination study, TNP-470 30 mg/kg s.c. every other day, daily IL-2, FIG. 5A
Procedure: (§2) On day 0, tumor cells were implanted into the subcutaneous space on the right flank of recipient mice. On the days of treatment, CTLs (4 to 7 post-transduction) were harvested, washed, resuspended in cold PBS, and injected in a volume of 300 μl into the retro-orbital venous plexus. […] TNP-470 (TAP Holdings Inc., Deerfield, Ill.) (30 mg/kg) was injected subcutaneously (into a site remote from the tumor) every other day in 0.3 ml PBS starting with the first day of CTL therapy. Starting volumes of tumors ranged from 40 to 80 mm^3.

[3] = Toxicity observations in treated tumor-bearing mice; type: in vivo; conditions: TNP-470 alone
Procedure: as §1

[4] = test system: B16.F10 murine melanomas; experiment: Adoptive transfer, subcutaneous B16.F10 tumors in C57BL/6 mice; type: in vivo; conditions: combination study, TNP-470 30 mg/kg s.c. every other day, daily IL-2, FIG. 5B
Procedure: as §2

[5] = target: T1, human KDR-Fc (VEGFR2) (Homo sapiens, UniProt P35968); type: binding
T1 construct: purchased R & D Systems
T1 sequence (P35968 20-764 limits assumed): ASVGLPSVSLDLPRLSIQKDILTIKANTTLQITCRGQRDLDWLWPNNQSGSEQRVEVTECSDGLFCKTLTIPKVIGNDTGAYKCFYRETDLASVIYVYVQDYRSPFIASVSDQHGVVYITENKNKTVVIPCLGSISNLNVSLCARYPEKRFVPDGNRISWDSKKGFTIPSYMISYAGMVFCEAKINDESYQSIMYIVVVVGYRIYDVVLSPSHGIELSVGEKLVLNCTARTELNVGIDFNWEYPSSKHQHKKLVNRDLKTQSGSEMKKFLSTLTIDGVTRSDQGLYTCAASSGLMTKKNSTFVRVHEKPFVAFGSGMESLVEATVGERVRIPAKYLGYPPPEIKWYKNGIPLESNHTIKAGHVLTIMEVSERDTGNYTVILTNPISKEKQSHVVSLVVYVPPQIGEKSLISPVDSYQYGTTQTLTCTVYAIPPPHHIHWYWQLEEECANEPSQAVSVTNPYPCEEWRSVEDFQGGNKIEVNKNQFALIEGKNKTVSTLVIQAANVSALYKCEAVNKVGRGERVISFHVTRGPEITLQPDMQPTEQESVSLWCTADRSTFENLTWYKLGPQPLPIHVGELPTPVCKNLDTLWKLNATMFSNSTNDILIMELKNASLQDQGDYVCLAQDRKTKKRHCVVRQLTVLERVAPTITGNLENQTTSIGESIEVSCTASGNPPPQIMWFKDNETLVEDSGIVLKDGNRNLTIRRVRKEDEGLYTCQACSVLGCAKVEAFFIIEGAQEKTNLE
Procedure: High-titer retrovirus encoding the gene for a soluble form of Flk-1, Flk-Fc, were used to infect 293T cells. Conditioned medium from these transduced cells was collected and subjected to Western blot analysis by using either antibody directed against Flk-1 or ^125I-labeled protein A to confirm the presence of both the Flk-1 and Fc portions of the fusion protein. For FACS analysis of HeLa-VEGF-cTcR cells, 2 ml of conditioned medium from these transduced cells or control media from untransduced 293T cells was used as the primary reagent. The cells were then washed and incubated with anti-mouse IgG2a-PE (Chemicon) and analyzed. For the VEGF-cTcR/KDR-Fc binding study, VEGF-cTcR clone 2 cells were incubated with increasing amounts of human KDR-Fc (R & D Systems), washed twice with PBS, and stained with anti-human IgG1-FITC antibody. For analysis of transduced CTLs, cells were incubated successively with anti-human c-Myc antibody, biotinylated anti-mouse IgG, and streptavidin-PE or only with anti-mouse CD8 antibody conjugated to FITC (Pharmingen).

[6] = target: Flk-1 (Mus musculus, UniProt P35918); conditions: Millauer 1993; Quinn 1993; cited from earlier work
Flk-1, sequence (P35918 20-1345): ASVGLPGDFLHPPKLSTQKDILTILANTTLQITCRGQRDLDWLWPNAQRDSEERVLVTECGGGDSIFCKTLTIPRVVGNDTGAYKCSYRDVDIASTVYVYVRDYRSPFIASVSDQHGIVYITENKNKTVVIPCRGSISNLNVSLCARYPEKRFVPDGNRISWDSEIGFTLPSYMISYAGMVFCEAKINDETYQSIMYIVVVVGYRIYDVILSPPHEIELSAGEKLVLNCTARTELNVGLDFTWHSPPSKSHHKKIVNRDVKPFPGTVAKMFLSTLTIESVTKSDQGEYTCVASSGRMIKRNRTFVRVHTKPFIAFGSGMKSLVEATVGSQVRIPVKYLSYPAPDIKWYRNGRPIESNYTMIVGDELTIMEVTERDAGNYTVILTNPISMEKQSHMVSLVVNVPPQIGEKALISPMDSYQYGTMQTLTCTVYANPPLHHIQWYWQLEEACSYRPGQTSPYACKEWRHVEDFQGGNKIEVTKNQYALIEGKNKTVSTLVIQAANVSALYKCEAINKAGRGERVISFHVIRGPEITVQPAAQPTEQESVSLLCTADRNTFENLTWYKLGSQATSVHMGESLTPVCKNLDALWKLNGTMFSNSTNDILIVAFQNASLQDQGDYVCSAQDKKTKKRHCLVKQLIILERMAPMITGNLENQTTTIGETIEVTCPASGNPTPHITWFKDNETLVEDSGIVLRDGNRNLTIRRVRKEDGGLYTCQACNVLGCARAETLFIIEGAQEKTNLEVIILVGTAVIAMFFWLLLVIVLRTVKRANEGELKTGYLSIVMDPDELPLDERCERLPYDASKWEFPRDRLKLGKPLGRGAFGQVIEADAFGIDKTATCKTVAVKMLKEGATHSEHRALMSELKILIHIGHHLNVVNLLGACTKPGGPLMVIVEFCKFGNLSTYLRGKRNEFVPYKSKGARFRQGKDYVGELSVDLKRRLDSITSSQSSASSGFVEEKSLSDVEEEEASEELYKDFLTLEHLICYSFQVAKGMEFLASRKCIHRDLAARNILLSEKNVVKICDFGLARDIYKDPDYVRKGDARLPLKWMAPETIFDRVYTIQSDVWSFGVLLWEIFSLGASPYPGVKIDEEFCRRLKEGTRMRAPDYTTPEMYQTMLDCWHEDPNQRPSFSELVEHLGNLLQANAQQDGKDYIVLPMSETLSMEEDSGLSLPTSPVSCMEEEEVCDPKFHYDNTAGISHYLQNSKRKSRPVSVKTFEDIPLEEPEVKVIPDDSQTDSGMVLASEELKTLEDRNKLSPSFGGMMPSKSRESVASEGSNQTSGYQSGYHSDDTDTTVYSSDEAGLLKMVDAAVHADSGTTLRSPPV

Compound	inhibition of T241 fibrosarcoma growth [1] [%]	inhibition of CT26 adenocarcinoma growth [2] [%]	weight loss ([3]; 30 mg/kg s.c. every other day)	reaction at the TNP-470 injection site ([3]; occasionally)	inhibition of B16.F10 melanoma growth [4] [%]	inhibition of KDR-Fc binding to VEGF-cTcR clone 2 cells [5]	binding affinity reported for association of native VEGF and Flk-1 [6] [nM]
CO[C@@H]1[C@H](OC(=O)NC(=O)CCl)CC[C@]2(CO2)[C@H]1[C@@]1(C)O[C@@H]1CC=C(C)C [TNP-470]	73	70	up to 10 % of total body weight	mild skin breakdown	71		
VEGF						inhibited in a dose-dependent manner	0.1 to 0.5
